Test results taken from a melting point compilation (Tetko et al.; mined from patent text by program, amines drawn as free bases though some values may be those of a salt).

| SMILES | melting point [°C] |
| --- | --- |
| COc1ccc2c(c1)N(C)C(=S)C2 | 135 to 136 |
| COc1nc(C)c(N2CCCn3c2nc2c(Cl)ccc(C(OC(F)F)C(F)(F)F)c23)c(C)n1 (stereo not given) | 169 to 170 |
| C=CCOc1nc(SC)nc(N2CCc3ccccc3CC2)c1C#N | 103 to 105 |
| CC(C)Nc1nn(C)c(=O)c2cn(Cc3cccc4ccccc34)cc12 | 221 to 222 |
| Cc1c(C)c2c(c(C)c1NC(=O)NCC(C)(C)CO)C(c1ccc(C(C)C)cc1)CO2 (stereo not given) | 117 to 118 |
| CCN(CC)c1ccc(C=O)c(OCCN2CCCCC2)c1 | 70 to 72 |
| CC(C)(C)c1cc(-c2nn(CCC(N)=O)c3ncccc23)cc(C(C)(C)C)c1O | 154 to 157 |
| CC(C)CN/C(=C1/Sc2ccccc2C1=O)c1ccccc1 | 125 to 126 |
| COc1ccc2c(c1)OC(=O)C(C)(C#Cc1ccccc1)C2 (stereo not given) | 136 to 138 |
| ON=C1c2ccccc2-c2c1c(N1CCN(c3ccccn3)CC1)nc1ccc(Br)cc21 | 235 to 237 |
| Nc1cccc(C2=NNC(=O)Cc3cc4c(cc32)OCO4)c1 | 118 to 122 |
| COc1cc2c(cc1OC)C(=O)c1cc3ccccc3cc1C2=O | > 250 |
| CCC(CC)C1CC(=O)C(C(=O)NS(=O)(=O)c2ccc(C)cc2)C(=O)C1 (stereo not given) | 112 |
| COC(=O)c1ccccc1NC(=S)c1ccc(OC)nc1 | 133 to 140 |
| CC(=O)Oc1ccc(CCc2cccc(OC(C)=O)c2)cc1 | 69.5 to 70 |
| COc1ccc(C(C#Cc2ccccc2)Cc2noc(C(F)(F)F)n2)cc1OC1CCCC1 (racemic) | 96 to 98 |
| CCOC(=O)c1ccc(-c2ccc(-c3ccc(Cl)cc3)s2)cc1 | 167 to 168 |
| CN(C)C=C1CC(=O)Nc2ccccc2C1=O | 203 to 205 |
| CNC(=O)N1CCC(Oc2cccc(C(F)(F)F)c2)(c2ccccc2)CC1 | 124 to 127 |
| O=c1oc2ccccc2c(O)c1SCCOc1ccccc1 | 120 to 121 |
| CC(C)(C)OC(=O)N1C[C@@H](c2c[nH]c3ccccc23)[C@H](c2cn3c4c(cccc24)CCC3)C1 | 239 to 240 |
| CCOC(=O)c1cn(C2CC2)c2c(F)c(N3CC(CNC(C)=O)C3)c(F)cc2c1=O | 170 to 190 |
| COC(=O)Cc1ccccc1CC(=O)NCCc1ccc(OC)c(OC)c1 | 88 to 91 |
| C[C@@H](Nc1ncnc2[nH]c(-c3ccc(C#N)cc3)cc12)c1ccccc1 | 333 to 336 |
| CC1c2cccc3c2N(CC3)c2ccccc2N1C(=O)CN(C)Cc1ccccc1 (stereo not given) | 101 to 106 |

| SMILES | melting point [°C] |
| --- | --- |
| CCOC(=O)CNC(=O)CCC(=O)OC | 61 to 62 |
| CN(C)CC1Cc2ccccc2N(S(=O)(=O)CCc2ccc(-c3ccccc3)cc2)C1 (stereo not given) | 108 to 109 |
| CC(=O)OCCOCc1nc2nccnc2c(=O)[nH]1 | 157 to 159 |
| CCCCCOC1CCN(S(=O)(=O)C=Cc2ccccc2)C1=O (stereo not given) | 66 to 68 |
| CCCN(CCC)Cc1cnc(-c2ncn3c2CN(C)C(=O)c2ccccc2-3)o1 | 133 to 135 |
| Cc1cccc(NC(=O)NC2N=C(c3ccccc3F)c3ccccc3N(Cc3csc4ccccc34)C2=O)c1 (racemic) | 214 to 216 |
| COc1cccc(N(C(=O)c2ccc(-c3cccc(C)c3)s2)C2CC2)c1 | 68 |
| CC(C)(C)Sc1c(CC(C)(C)C(=O)O)n(Cc2ccc(Cl)cc2)c2ccc(OCc3ccc4ccccc4n3)cc12 | 208 |
| O=C(Nc1ccc(C(O)(C(F)(F)F)C(F)(F)F)cc1)Oc1ccccc1 | 192 to 194 |
| Brc1ccc(-c2cc(-c3ccc(Br)cc3)on2)cc1 | 218 to 220 |
| N#Cc1ccccc1OCCc1c[nH]cn1 | 170 to 171 |
| N#CCCc1cc(C(=O)O)cc(S(N)(=O)=O)c1Oc1ccccc1 | 259 to 262 |
| Cc1cccc2c(C=C(Br)Br)csc12 | 75 to 78 |
| C=Cc1c(N)nc(-c2ccc(Cl)c(OC)c2F)nc1C(=O)O | 167 to 168 |
| CC1(C)C(=O)ON(Cc2cc(Cl)ccc2Cl)C1=O | 78 to 80 |
| Cc1[nH]c2ccccc2c1Cc1cccnc1 | 207 to 210 |
| C=CC(CSCCC(F)(F)C(F)(F)C(F)(F)C(F)(F)C(F)(F)C(F)(F)F)SSc1nc2ccccc2s1 (stereo not given) | 47 to 48 |
| CCCCCCCCCN1C(=O)c2ccc3c4cccc5cccc(c6ccc(c2c36)C1=O)c54 | 201 |
| CCOCc1nc2c(N)nc3cc(OCCCCCCNC(=O)CCS)ccc3c2n1CC(C)(C)NS(C)(=O)=O | 152 to 157 |
| Cc1c(S(=O)(=O)c2ccc(=O)[nH]n2)oc2cc(Cl)ccc12 | > 240 |
| Cn1ncc(/C=C/C(=O)Nc2ccc(CN3C(=O)COC3=O)cc2)c1-c1ccc(F)cc1 | 239 to 240 |
| Brc1ccccc1-c1nnnn1C(c1ccccc1)(c1ccccc1)c1ccccc1 | 160 to 162 |
| COc1ccc(C(=O)N2CCC(N(C)c3ccccc3Cl)c3ccccc32)cc1OC (stereo not given) | 146 to 147 |
| O=C1NCC2=C1CN=C(c1ccccc1Cl)c1cc(Cl)ccc12 | 243 to 244 |
| CC(C)(C)c1ccc(OP(Oc2ccc(C(C)(C)C)cc2C(C)(C)C)Oc2ccc(C(C)(C)C)cc2C(C)(C)C)c(C(C)(C)C)c1 | 181 to 186 |
